Assay results from PMC12147209 (2025).

Columns and labels:
[1] = tested on: 5′-AA-3′ (DNA, single strand, 5'-phosphate (discussed as a 5' phosphate group in the modelled structure)) AA; experiment: Raman spectroscopy of dried mixture (532 nm); conditions: no added salt stated; water, dried residue; spermine and dinucleotide at 2:1 molar excess, incubated overnight
[2] = tested on: 5′-AA-3′ (DNA, single strand, 5'-phosphate (discussed as a 5' phosphate group in the modelled structure)) AA; experiment: SERS adsorption isotherm, Hill-Langmuir fit; conditions: no added salt stated; immobilised compound, apparent; dinucleotide adsorption on spermine-capped gold-silver nanostars; 20 °C; spermine 6.7×10^-5 M; Hill n 1.5

binding [1]: yes | K d [2]: (6.2 ± 0.7) 10^–7 M
Structure (SMILES): NCCCNCCCCNCCCN
